Assay results published in PubChem BioAssay (NCI).
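Growth conditions: 96-well plates. Treatment: test compound, 48 hours, 5 concentrations. Analysis: linear interpolation between bracketing concentrations; unreached endpoints set to highest concentration. Abbreviation: GI50, concentration required for 50% inhibition of growth. TGI is the concentration that stops growth completely.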

Columns and labels:
Assay in all cases: NCI anticancer screen, dose series, 48 h
786-0 renal = tested on: 786-0 renal
A498 renal = tested on: A498 renal
A549 NSCLC = tested on: A549 NSCLC
ACHN renal = tested on: ACHN renal
BT-549 breast = tested on: BT-549 breast
CAKI-1 renal = tested on: CAKI-1 renal
DU-145 prostate = tested on: DU-145 prostate
EKVX NSCLC = tested on: EKVX NSCLC
HCC-2998 colon = tested on: HCC-2998 colon
HCT-116 colon = tested on: HCT-116 colon
HCT-15 colon = tested on: HCT-15 colon
HL-60(TB) leukemia = tested on: HL-60(TB) leukemia
HOP-62 NSCLC = tested on: HOP-62 NSCLC
HOP-92 NSCLC = tested on: HOP-92 NSCLC
K-562 leukemia = tested on: K-562 leukemia
KM12 colon = tested on: KM12 colon
M14 melanoma = tested on: M14 melanoma
MALME-3M melanoma = tested on: MALME-3M melanoma
MCF7 breast = tested on: MCF7 breast
MDA-MB-231 breast = tested on: MDA-MB-231 breast
MDA-MB-435 = tested on: MDA-MB-435
MOLT-4 leukemia = tested on: MOLT-4 leukemia
NCI-H226 lung = tested on: NCI-H226 lung
NCI-H23 lung = tested on: NCI-H23 lung
NCI/ADR-RES ovarian = tested on: NCI/ADR-RES ovarian
OVCAR-3 ovarian = tested on: OVCAR-3 ovarian
OVCAR-4 ovarian = tested on: OVCAR-4 ovarian
OVCAR-5 ovarian = tested on: OVCAR-5 ovarian
OVCAR-8 ovarian = tested on: OVCAR-8 ovarian
PC-3 prostate = tested on: PC-3 prostate
RXF 393 renal = tested on: RXF 393 renal
SF-268 CNS = tested on: SF-268 CNS
SF-295 CNS = tested on: SF-295 CNS
SF-539 CNS = tested on: SF-539 CNS
SK-MEL-2 melanoma = tested on: SK-MEL-2 melanoma
SK-MEL-28 melanoma = tested on: SK-MEL-28 melanoma
SK-MEL-5 melanoma = tested on: SK-MEL-5 melanoma
SK-OV-3 ovarian = tested on: SK-OV-3 ovarian
SN12C renal = tested on: SN12C renal
SNB-19 CNS = tested on: SNB-19 CNS
SNB-75 CNS = tested on: SNB-75 CNS
SR leukemia = tested on: SR leukemia
T-47D breast = tested on: T-47D breast
TK-10 renal = tested on: TK-10 renal
UACC-257 melanoma = tested on: UACC-257 melanoma
UACC-62 melanoma = tested on: UACC-62 melanoma
CCRF-CEM leukemia = tested on: CCRF-CEM leukemia
HS 578T breast = tested on: HS 578T breast
HT29 colon = tested on: HT29 colon
UO-31 renal = tested on: UO-31 renal
COLO 205 colon = tested on: COLO 205 colon
IGROV1 ovarian = tested on: IGROV1 ovarian
NCI-H460 lung = tested on: NCI-H460 lung
NCI-H522 lung = tested on: NCI-H522 lung
RPMI-8226 leukemia = tested on: RPMI-8226 leukemia
SW-620 colon = tested on: SW-620 colon
U251 CNS = tested on: U251 CNS

`Oc1ccc(CCNc2nc3ccccc3c3[nH]c4ccccc4c23)cc1` was tested, and the GI50 (786-0 renal) was 1290 nM, the TGI (786-0 renal) was 2.69 µM and the GI50 (A498 renal) was 11.5 µM. The TGI (A498 renal) was 23.8 µM, the GI50 (A549 NSCLC) was 1330 nM and the TGI (A549 NSCLC) was 2750 nM. For the same compound, the GI50 (ACHN renal) was 1270 nM, the TGI (ACHN renal) was 2520 nM and the GI50 (BT-549 breast) was 1930 nM. The TGI (BT-549 breast) was 3.69 µM, the GI50 (CAKI-1 renal) was 1590 nM and the TGI (CAKI-1 renal) was 3.76 µM. It also gave a GI50 (DU-145 prostate) of 1450 nM, a TGI (DU-145 prostate) of 3.42 µM and a GI50 (EKVX NSCLC) of 1910 nM. It also gave a TGI (EKVX NSCLC) of 3.95 µM, a GI50 (HCC-2998 colon) of 1560 nM and a TGI (HCC-2998 colon) of 3.02 µM. For the same compound, the GI50 (HCT-116 colon) was 1220 nM, the TGI (HCT-116 colon) was 2.89 µM and the GI50 (HCT-15 colon) was 1160 nM. For the same compound, the TGI (HCT-15 colon) was 2.93 µM, the GI50 (HL-60(TB) leukemia) was 2400 nM and the TGI (HL-60(TB) leukemia) was 5.41 µM. It also gave a GI50 (HOP-62 NSCLC) of 1630 nM, a TGI (HOP-62 NSCLC) of 3.35 µM and a GI50 (HOP-92 NSCLC) of 1300 nM. For the same compound, the TGI (HOP-92 NSCLC) was 2820 nM, the GI50 (K-562 leukemia) was 1910 nM and the TGI (K-562 leukemia) was greater than 100 µM. The GI50 (KM12 colon) was 1200 nM, the TGI (KM12 colon) was 2.98 µM and the GI50 (M14 melanoma) was 1730 nM. The TGI (M14 melanoma) was 3.26 µM, the GI50 (MALME-3M melanoma) was 1790 nM and the TGI (MALME-3M melanoma) was 3.46 µM. The GI50 (MCF7 breast) was 1370 nM, the TGI (MCF7 breast) was 3.16 µM and the GI50 (MDA-MB-231 breast) was 1360 nM. The TGI (MDA-MB-231 breast) was 2.97 µM, the GI50 (MDA-MB-435) was 1600 nM and the TGI (MDA-MB-435) was 3.16 µM. It also gave a GI50 (MOLT-4 leukemia) of 472 nM, a TGI (MOLT-4 leukemia) greater than 100 µM and a GI50 (NCI-H226 lung) of 2650 nM. It also gave a TGI (NCI-H226 lung) of 7.3 µM, a GI50 (NCI-H23 lung) of 1960 nM and a TGI (NCI-H23 lung) of 4.27 µM. The GI50 (NCI/ADR-RES ovarian) was 2680 nM, the TGI (NCI/ADR-RES ovarian) was 9.28 µM and the GI50 (OVCAR-3 ovarian) was 1600 nM. The TGI (OVCAR-3 ovarian) was 3.24 µM, the GI50 (OVCAR-4 ovarian) was 1660 nM and the TGI (OVCAR-4 ovarian) was 3.15 µM. For the same compound, the GI50 (OVCAR-5 ovarian) was 2890 nM, the TGI (OVCAR-5 ovarian) was 7.18 µM and the GI50 (OVCAR-8 ovarian) was 1020 nM. For the same compound, the TGI (OVCAR-8 ovarian) was 2290 nM, the GI50 (PC-3 prostate) was 1630 nM and the TGI (PC-3 prostate) was 3.31 µM. It also gave a GI50 (RXF 393 renal) of 1250 nM, a TGI (RXF 393 renal) of 2.66 µM and a GI50 (SF-268 CNS) of 1710 nM. For the same compound, the TGI (SF-268 CNS) was 5.01 µM, the GI50 (SF-295 CNS) was 1380 nM and the TGI (SF-295 CNS) was 2.87 µM. It also gave a GI50 (SF-539 CNS) of 1730 nM, a TGI (SF-539 CNS) of 3.19 µM and a GI50 (SK-MEL-2 melanoma) of 1730 nM. The TGI (SK-MEL-2 melanoma) was 3.36 µM, the GI50 (SK-MEL-28 melanoma) was 1610 nM and the TGI (SK-MEL-28 melanoma) was 2.98 µM. The GI50 (SK-MEL-5 melanoma) was 1750 nM, the TGI (SK-MEL-5 melanoma) was 3.15 µM and the GI50 (SK-OV-3 ovarian) was 13.7 µM. For the same compound, the TGI (SK-OV-3 ovarian) was 27 µM, the GI50 (SN12C renal) was 1270 nM and the TGI (SN12C renal) was 2620 nM. The GI50 (SNB-19 CNS) was 1830 nM, the TGI (SNB-19 CNS) was 5.3 µM and the GI50 (SNB-75 CNS) was 1810 nM. It also gave a TGI (SNB-75 CNS) of 3.82 µM, a GI50 (SR leukemia) of 1480 nM and a TGI (SR leukemia) greater than 100 µM. For the same compound, the GI50 (T-47D breast) was 1940 nM, the TGI (T-47D breast) was 6.34 µM and the GI50 (TK-10 renal) was 1750 nM. It also gave a TGI (TK-10 renal) of 3.3 µM, a GI50 (UACC-257 melanoma) of 1940 nM and a TGI (UACC-257 melanoma) of 3.46 µM. For the same compound, the GI50 (UACC-62 melanoma) was 1660 nM and the TGI (UACC-62 melanoma) was 3.04 µM.

`[O-]c1c2cc(-[n+]3c(-c4ccccc4)cc(-c4ccccc4)cc3-c3ccccc3)cc1CO[C@@H](c1ccccc1)[C@H](c1ccccc1)OCCOCCO[C@@H](c1ccccc1)[C@H](c1ccccc1)OC2` showed a TGI (CCRF-CEM leukemia) of 238 nM, a TGI (DU-145 prostate) of 1.14 µM and a TGI (HS 578T breast) of 3.12 µM. For the same compound, the TGI (HT29 colon) was 0.646 µM, the TGI (UACC-62 melanoma) was 1.39 µM and the TGI (UO-31 renal) was greater than 100 µM.

`CCCCN1/C(=N/Nc2n[nH]c(=O)c3ccccc23)SCC1c1ccc(Cl)cc1` (stereo unspecified) showed a TGI (786-0 renal) of 42.2 µM, a TGI (A498 renal) of 66.2 µM and a TGI (A549 NSCLC) greater than 100000 nM. The TGI (ACHN renal) was greater than 100000 nM, the TGI (CAKI-1 renal) was 77.4 µM and the TGI (COLO 205 colon) was greater than 100 µM. For the same compound, the TGI (DU-145 prostate) was greater than 100 µM, the TGI (EKVX NSCLC) was 41.2 µM and the TGI (HCT-116 colon) was 44.8 µM. It also gave a TGI (HCT-15 colon) of 28.7 µM, a TGI (HL-60(TB) leukemia) greater than 100 µM and a TGI (HOP-62 NSCLC) of 18.5 µM. For the same compound, the TGI (HOP-92 NSCLC) was greater than 100000 nM, the TGI (HS 578T breast) was 56.2 µM and the TGI (HT29 colon) was 96.1 µM. It also gave a TGI (IGROV1 ovarian) of 41.1 µM, a TGI (K-562 leukemia) greater than 100 µM and a TGI (KM12 colon) of 19.6 µM. The TGI (M14 melanoma) was 19.5 µM, the TGI (MALME-3M melanoma) was 62 µM and the TGI (MCF7 breast) was 33.2 µM. For the same compound, the TGI (MDA-MB-231 breast) was 55 µM, the TGI (MDA-MB-435) was 31.9 µM and the TGI (NCI-H226 lung) was 27.5 µM. It also gave a TGI (NCI-H23 lung) of 14.7 µM, a TGI (NCI-H460 lung) of 24.8 µM and a TGI (NCI-H522 lung) of 37.1 µM. The TGI (NCI/ADR-RES ovarian) was 47 µM, the TGI (OVCAR-3 ovarian) was 37.6 µM and the TGI (OVCAR-4 ovarian) was greater than 100 µM. For the same compound, the TGI (OVCAR-5 ovarian) was 61 µM, the TGI (OVCAR-8 ovarian) was greater than 100000 nM and the TGI (PC-3 prostate) was greater than 100 µM. For the same compound, the TGI (RPMI-8226 leukemia) was greater than 100 µM, the TGI (RXF 393 renal) was 63.1 µM and the TGI (SF-268 CNS) was 43.9 µM. It also gave a TGI (SF-295 CNS) of 22.6 µM, a TGI (SF-539 CNS) of 33.1 µM and a TGI (SK-MEL-2 melanoma) of 56.4 µM. The TGI (SK-MEL-28 melanoma) was 47.1 µM, the TGI (SK-MEL-5 melanoma) was 14.3 µM and the TGI (SK-OV-3 ovarian) was greater than 100 µM. It also gave a TGI (SN12C renal) greater than 100000 nM, a TGI (SNB-19 CNS) of 42 µM and a TGI (SNB-75 CNS) of 64 µM. The TGI (SR leukemia) was 24.6 µM, the TGI (SW-620 colon) was 53 µM and the TGI (T-47D breast) was greater than 100 µM. It also gave a TGI (TK-10 renal) of 92.7 µM, a TGI (U251 CNS) of 21.2 µM and a TGI (UACC-257 melanoma) of 45.6 µM. For the same compound, the TGI (UACC-62 melanoma) was 20.7 µM and the TGI (UO-31 renal) was 93.3 µM.

With `COc1ccc2c(CCCCC(c3ccccc3)c3ccccc3)c3[n+](cc2c1OC)CCc1cc2c(cc1-3)OCO2` the GI50 (HS 578T breast) was 536 nM, the TGI (HS 578T breast) was 3.09 µM and the GI50 (MDA-MB-435) was 106 nM. For the same compound, the TGI (MDA-MB-435) was 1.02 µM, the GI50 (NCI-H226 lung) was 280 nM and the TGI (NCI-H226 lung) was 1.85 µM. It also gave a GI50 (NCI/ADR-RES ovarian) of 1830 nM, a TGI (NCI/ADR-RES ovarian) of 7.48 µM and a GI50 (SK-MEL-5 melanoma) of 45.1 nM. The TGI (SK-MEL-5 melanoma) was 0.177 µM.
